In PMC7932537, “Quantitative profiling of protease specificity” (PLoS Computational Biology, 2021):

Columns and labels:
MMP-2 [1] = target: T1, MMP-2 (Homo sapiens, UniProt P08253); assay: K(obs) of individual phage substrates (set of 1369); format: biochemical; details: MMP2
T1 sequence (P08253 110-660): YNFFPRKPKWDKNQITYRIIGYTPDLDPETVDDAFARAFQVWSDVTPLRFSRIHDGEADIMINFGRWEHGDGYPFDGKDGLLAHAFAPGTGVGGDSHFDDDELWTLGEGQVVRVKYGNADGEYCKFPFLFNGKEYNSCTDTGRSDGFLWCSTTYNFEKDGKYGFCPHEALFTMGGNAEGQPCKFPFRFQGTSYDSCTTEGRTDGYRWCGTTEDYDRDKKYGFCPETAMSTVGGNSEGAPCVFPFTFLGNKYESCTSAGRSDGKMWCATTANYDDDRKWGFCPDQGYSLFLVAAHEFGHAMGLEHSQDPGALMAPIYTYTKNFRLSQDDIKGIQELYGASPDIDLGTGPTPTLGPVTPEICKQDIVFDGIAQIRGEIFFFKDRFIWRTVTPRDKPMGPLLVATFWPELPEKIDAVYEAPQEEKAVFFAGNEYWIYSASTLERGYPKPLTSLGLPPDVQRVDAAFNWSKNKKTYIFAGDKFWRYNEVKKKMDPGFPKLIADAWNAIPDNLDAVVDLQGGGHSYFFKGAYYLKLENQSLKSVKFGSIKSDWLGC

MMP-9 = MMP-9 (Homo sapiens, UniProt P14780); assay: as above; format: biochemical; details: MMP9
Sequence of MMP-9 (P14780 94-707): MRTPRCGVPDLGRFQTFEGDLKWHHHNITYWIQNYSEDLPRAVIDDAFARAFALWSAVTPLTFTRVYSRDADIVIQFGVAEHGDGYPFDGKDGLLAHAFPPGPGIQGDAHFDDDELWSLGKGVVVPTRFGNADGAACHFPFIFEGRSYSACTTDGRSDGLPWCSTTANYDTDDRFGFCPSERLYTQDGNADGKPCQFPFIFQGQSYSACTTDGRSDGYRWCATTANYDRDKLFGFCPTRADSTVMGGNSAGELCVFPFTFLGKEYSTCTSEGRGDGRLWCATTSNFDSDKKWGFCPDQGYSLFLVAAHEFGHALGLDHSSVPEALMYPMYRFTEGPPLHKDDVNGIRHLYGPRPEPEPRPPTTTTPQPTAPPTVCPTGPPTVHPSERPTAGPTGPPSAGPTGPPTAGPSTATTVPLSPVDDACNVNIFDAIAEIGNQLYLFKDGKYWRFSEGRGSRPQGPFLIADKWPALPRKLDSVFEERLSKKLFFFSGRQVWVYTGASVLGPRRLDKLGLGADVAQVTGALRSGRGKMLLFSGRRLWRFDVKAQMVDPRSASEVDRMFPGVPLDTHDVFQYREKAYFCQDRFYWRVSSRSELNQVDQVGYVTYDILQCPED

MMP-2 [2] = assay: Substrate phage display with NGS: relative probability (RP) of P3-P1' tetramer clusters; format: biochemical, human; details: MMP2;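 note: ratio of tetramer probability after protease selection to that in naive phage library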
[3] = individual phage substrates, set of 1369 peptides, cleavage position marked by hyphen in sequence
[4] = individual phage substrates, set of 1369 peptides, hyphen in sequence marks cleavage position
[5] = RP of the P3-P1' tetramer contained in the substrate (substrate phage display with NGS)
[6] = individual phage substrate of the set of 1369 peptides, cleavage position marked by '-'
[7] = individual phage substrate of the set of 1369 peptides, dash in the sequence marks the cleavage position
[8] = RP of the P3-P1' tetramer contained in the substrate

| Substance | Kobs (MMP-2 [1]; [3]) | Kobs (MMP-9; [4]) | relative probability (RP) (MMP-2 [2]; [5]) | Kobs (MMP-2 [1]; [6]) | Kobs (MMP-9; [7]) | relative probability (RP) (MMP-2 [2]; [8]) |
| --- | --- | --- | --- | --- | --- | --- |
| GKLKH-LQTAS | 726.013 M⁻¹ s⁻¹ | 0 M⁻¹ s⁻¹ | 11.1441 | – | – | – |
| GKMFH-LITAS | 292.668 M⁻¹ s⁻¹ | 142.481 M⁻¹ s⁻¹ | 0.052 | – | – | – |
| GKPAS-LDTAS | 1239.69 M⁻¹ s⁻¹ | 0 M⁻¹ s⁻¹ | 36.4285 | – | – | – |
| GKVEY-LVTAS | 0 M⁻¹ s⁻¹ | 0 M⁻¹ s⁻¹ | 5.301 | – | – | – |
| GKVSE-LITAS | 231.616 M⁻¹ s⁻¹ | 142.481 M⁻¹ s⁻¹ | 24.0996 | – | – | – |
| GLAWG-LYTAS | 2916.17 M⁻¹ s⁻¹ | 2409.72 M⁻¹ s⁻¹ | 17.7408 | – | – | – |
| GLGLN-LTASG | 355.093 M⁻¹ s⁻¹ | 231.616 M⁻¹ s⁻¹ | 0.5789 | – | – | – |
| GLLLN-MTASG | 1711.63 M⁻¹ s⁻¹ | 517.582 M⁻¹ s⁻¹ | 13.7728 | – | – | – |
| GLPDF-LTASG | 0 M⁻¹ s⁻¹ | 0 M⁻¹ s⁻¹ | 1.02 | – | – | – |
| GLPLN-WRTAS | 2545.25 M⁻¹ s⁻¹ | 3964.21 M⁻¹ s⁻¹ | 28.8158 | – | – | – |
| GLPMH-LTASG | – | – | – | 7386.83 M⁻¹ s⁻¹ | 10866.7 M⁻¹ s⁻¹ | 30.095 |
| GLPTA-LRTAS | 12792.1 M⁻¹ s⁻¹ | 5667.28 M⁻¹ s⁻¹ | 32.8941 | – | – | – |
| GLPYA-LYTAS | 12792.1 M⁻¹ s⁻¹ | 12792.1 M⁻¹ s⁻¹ | 33.2554 | – | – | – |
| GMAQY-LTASG | 4205.91 M⁻¹ s⁻¹ | 762.325 M⁻¹ s⁻¹ | 7.443 | – | – | – |
| GMARF-LSTAS | 2097.28 M⁻¹ s⁻¹ | 912.511 M⁻¹ s⁻¹ | 8.577 | – | – | – |
| GMAWG-LRTAS | 8941.32 M⁻¹ s⁻¹ | 7815.03 M⁻¹ s⁻¹ | 17.7408 | – | – | – |
| GMPRY-MTASG | – | – | – | 4335.13 M⁻¹ s⁻¹ | 12792.1 M⁻¹ s⁻¹ | 28.0367 |
| GMPWS-VTASG | 1513.13 M⁻¹ s⁻¹ | 6131.32 M⁻¹ s⁻¹ | 0.3793 | – | – | – |
| GMVFS-IYTAS | – | – | – | 690.17 M⁻¹ s⁻¹ | 2097.28 M⁻¹ s⁻¹ | 0.2237 |
| GMVQH-LITAS | – | – | – | 10866.7 M⁻¹ s⁻¹ | 585.336 M⁻¹ s⁻¹ | 22.9738 |
| GNAIH-LQTAS | – | – | – | 1196.62 M⁻¹ s⁻¹ | 0 M⁻¹ s⁻¹ | 13.4941 |
| GNPLP-QMTAS | 2157.02 M⁻¹ s⁻¹ | 1870.4 M⁻¹ s⁻¹ | 24.381 | – | – | – |
| GNPYK-LTASG | – | – | – | 1196.62 M⁻¹ s⁻¹ | 8941.32 M⁻¹ s⁻¹ | 15.5683 |
| GNSWG-LRTAS | – | – | – | 292.668 M⁻¹ s⁻¹ | 690.17 M⁻¹ s⁻¹ | 0.1389 |
| GNVAN-LTASG | 12792.1 M⁻¹ s⁻¹ | 1327.88 M⁻¹ s⁻¹ | 34.9662 | – | – | – |
| GNVRN-LITAS | 12792.1 M⁻¹ s⁻¹ | 7386.83 M⁻¹ s⁻¹ | 29.2567 | – | – | – |
| GNVRS-LITAS | – | – | – | 12792.1 M⁻¹ s⁻¹ | 2476.66 M⁻¹ s⁻¹ | 12.3051 |

| Substance | Kobs (MMP-2 [1]; [3]) | Kobs (MMP-9; [4]) | relative probability (RP) (MMP-2 [2]; [5]) | Kobs (MMP-2 [1]; [6]) | Kobs (MMP-9; [7]) | relative probability (RP) (MMP-2 [2]; [8]) |
| --- | --- | --- | --- | --- | --- | --- |
| GPVYN-LRTAS | – | – | – | 5269.78 M⁻¹ s⁻¹ | 12792.1 M⁻¹ s⁻¹ | 19.1818 |
| GQARG-LQTAS | – | – | – | 3253.29 M⁻¹ s⁻¹ | 1660.66 M⁻¹ s⁻¹ | 25.9476 |
| GQPRG-LRTAS | – | – | – | 12792.1 M⁻¹ s⁻¹ | 12792.1 M⁻¹ s⁻¹ | 35.2511 |
| GQPRS-WRTAS | – | – | – | 9740.44 M⁻¹ s⁻¹ | 8941.32 M⁻¹ s⁻¹ | 32.796 |
| GQQMS-LRTAS | 56.119 M⁻¹ s⁻¹ | 0 M⁻¹ s⁻¹ | 0.2763 | – | – | – |
| GQVDY-LMTAS | 0 M⁻¹ s⁻¹ | 0 M⁻¹ s⁻¹ | 1.426 | – | – | – |
| GRAAW-LQTAS | 12792.1 M⁻¹ s⁻¹ | 1465.65 M⁻¹ s⁻¹ | 28.6088 | – | – | – |
| GRARW-LMTAS | – | – | – | 1561.44 M⁻¹ s⁻¹ | 3079.62 M⁻¹ s⁻¹ | 19.0362 |
| GRASH-LMTAS | 4470.66 M⁻¹ s⁻¹ | 726.013 M⁻¹ s⁻¹ | 19.8208 | – | – | – |
| GRGAN-LKTAS | 1816.46 M⁻¹ s⁻¹ | 951.362 M⁻¹ s⁻¹ | 13.1428 | – | – | – |
| GRIYE-LWTAS | 585.336 M⁻¹ s⁻¹ | 1373.05 M⁻¹ s⁻¹ | 0.2382 | – | – | – |
| GRLAS-LTASG | 12792.1 M⁻¹ s⁻¹ | 0 M⁻¹ s⁻¹ | 31.1996 | – | – | – |
| GRLGN-LWTAS | – | – | – | 5667.28 M⁻¹ s⁻¹ | 0 M⁻¹ s⁻¹ | 33.3542 |
| GRLRN-LVTAS | – | – | – | 5461.43 M⁻¹ s⁻¹ | 1925.41 M⁻¹ s⁻¹ | 27.1336 |
| GRMLH-LRTAS | – | – | – | 451.441 M⁻¹ s⁻¹ | 836.403 M⁻¹ s⁻¹ | 8.417 |
| GRPAD-LRTAS | – | – | – | 12792.1 M⁻¹ s⁻¹ | 12792.1 M⁻¹ s⁻¹ | 30.0217 |
| GRPRG-LTTAS | – | – | – | 12792.1 M⁻¹ s⁻¹ | 12792.1 M⁻¹ s⁻¹ | 35.2511 |
| GRPRS-LTASG | – | – | – | 12792.1 M⁻¹ s⁻¹ | 10866.7 M⁻¹ s⁻¹ | 33.3704 |
| GRVAY-LSTAS | – | – | – | 8941.32 M⁻¹ s⁻¹ | 56.119 M⁻¹ s⁻¹ | 26.5348 |
| GRVEL-LYTAS | 0 M⁻¹ s⁻¹ | 0 M⁻¹ s⁻¹ | 0 | – | – | – |
| GRVYD-LKTAS | 585.336 M⁻¹ s⁻¹ | 2761.81 M⁻¹ s⁻¹ | 1.244 | – | – | – |
| GSAVG-LRTAS | – | – | – | 12792.1 M⁻¹ s⁻¹ | 5667.28 M⁻¹ s⁻¹ | 28.9998 |
| GSFRG-LRTAS | 874.197 M⁻¹ s⁻¹ | 451.441 M⁻¹ s⁻¹ | 7.475 | – | – | – |
| GSGAA-LTMPT | 836.403 M⁻¹ s⁻¹ | 84.609 M⁻¹ s⁻¹ | 15.7207 | – | – | – |
| GSGAH-LQLST | – | – | – | 171.876 M⁻¹ s⁻¹ | 292.668 M⁻¹ s⁻¹ | 8.464 |
| GSGAS-LQMLT | 3253.29 M⁻¹ s⁻¹ | 84.609 M⁻¹ s⁻¹ | 9.538 | – | – | – |
